Patent publication US20080269510A1, “New alpha-glucosidase inhibitors and antibacterial compounds from Myrtus communis L” (priority 2005, published 2008)

Experiments:
Shigella flexneri = test: Antibacterial screening, agar well diffusion; conditions: 100 μL of 3 mg/3 ml DMSO sample per 6-mm well, 37° C., 24 h
[1] = target: α-Glucosidase (E.C.3.2.1.20); test: α-Glucosidase enzyme inhibition assay (PNP-G substrate, spectrophotometric); format: biochemical; conditions: for IC50: pH 6.9, 37° C., 0.7 mM PNP-G, 500 m units/mL enzyme, read-out: α-glucosidase inhibitory activity IC50; for α-glucosidase inhibition (in words): compared with standards acarbose and deoxynojirimycin
Protocol: α-Glucosidase (E.C.3.2.1.20) enzyme inhibition assay has been performed according to the slightly modified method of Matsui et al., (Matsui T., Yoshimoto C., Osajima K., Oki T., and Osajima Y., Biosci. Biotech. Biochem., 1996, 60, 2019-2022). α-Glucosidase (E.C.3.2.1.20) from Saccharomyces species, purchased commercially (Wako 076-02841; Wako Pure Chemical Industries Ltd., 1-2 Doshomachi 3-Chome, Chuo-ku, Osaka 540-8605, Japan). The enzyme inhibition was measured spectrophotometrically at pH 6.9 and at 37° C. using 0.7 mM p-nitrophenyl α-D glucopyranoside (PNP-G) as a substrate and 500 m units/mL enzyme, in 50 mM sodium phosphate buffer containing 100 mM NaCl. […] The increment in absorption at 400 nm, due to the hydrolysis of PNP-G by α-glucosidase, was monitored continuously on microplate spectrophotometer (Spectra Max Molecular Devices, USA).

Salmonella typhi = test: Antibacterial screening, agar well diffusion; format: cell-based; conditions: for Inhibition zone, ST (Salmonella typhi): 100 μL of 3 mg/3 ml DMSO sample per 6-mm well, 37° C., 24 h
Bacillus subtilis = test: Antibacterial screening, agar well diffusion; format: cell-based; conditions: 100 μL of 3 mg/3 ml DMSO sample per 6-mm well, 37° C., 24 h
Text: (§1) As a negative control, DMSO was used.

Escherichia coli = test: Antibacterial screening, agar well diffusion; format: cell-based; conditions: 100 μL of 3 mg/3 ml DMSO sample per 6-mm well, 37° C., 24 h
Text: as §1

Pseudomonas aeruginosa = test: Antibacterial screening, agar well diffusion; format: cell-based; conditions: for Inhibition zone, PA (Pseudomonas aeruginosa): 100 μL of 3 mg/3 ml DMSO sample per 6-mm well, 37° C., 24 h
Text: as §1

Staphylococcus aureus = test: Antibacterial screening, agar well diffusion; format: cell-based; conditions: for Inhibition zone, SA (Staphylococcus aureus): 100 μL of 3 mg/3 ml DMSO sample per 6-mm well, 37° C., 24 h
Text: as §1

[2] = tested on: multidrug-resistant (MDR) clinically relevant bacteria; conditions: cited from earlier work
[3] = autoxidation and FeCl3- and EDTA-mediated oxidation of linoleic acid; cited from earlier work

Row | Compound | Inhibition zone, SF (Shigella flexneri) (Shigella flexneri) [mm] | IC50 [1] [µM] | Inhibition zone, ST (Salmonella typhi) (Salmonella typhi) [mm] | Inhibition zone, BS (Bacillus subtilis) (Bacillus subtilis) [mm] | Inhibition zone, EC (Escherichia coli) (Escherichia coli) [mm] | Inhibition zone, PA (Pseudomonas aeruginosa) (Pseudomonas aeruginosa) [mm] | antibacterial activity against Staphylococcus aureus (in words) (Staphylococcus aureus) | α-glucosidase inhibition (in words) [1] | activity against Salmonella typhi (in words) (Salmonella typhi) | activity against Pseudomonas aeruginosa (in words) (Pseudomonas aeruginosa) | Inhibition zone, SA (Staphylococcus aureus) (Staphylococcus aureus) [mm] | antibacterial activity against MDR bacteria (in words) [2] | antioxidant properties (in words) [3]
1 | CC(C)C(=O)c1c(O)c2c(c3c1OC1=C(C(=O)C(C)(C)C(=O)C1(C)C)[C@@H]3C(C)C)OC1=C(C(=O)C(C)(C)C(=O)C1(C)C)[C@@H]2C(C)C [Compound 2, Myrtucommulone-E] | 10 | 46.6 | 17 | 15 | 10 | 13 | significant antibacterial activity |  |  |  |  |  | 
2 | CC(C)C(=O)c1c(O)c(C(C2=C(O)C(C)(C)C(=O)C(C)(C)C2=O)C(C)C)c(O)c2c1OC1=C(C(=O)C(C)(C)C(=O)C1(C)C)C2C(C)C (centres unmarked) [Compound 3, Myrtucommulone-C] |  | 35.4 ± 1.15 |  |  |  |  |  | highest activity |  |  |  |  | 
3 | CC(C)C(=O)c1c(O)cc(O)c2c1OC1=C(C(=O)C(C)(C)C(=O)C1(C)C)C2C(C)C (centres unmarked) [Compound 4, Myrtucommulone-B] |  | 40 ± 1 |  |  |  |  |  | strong inhibition |  |  |  |  | 
4 | CC[C@H](CC[C@@H](C)[C@H]1CC[C@H]2[C@@H]3CC=C4C[C@@H](O)CC[C@]4(C)[C@H]3CC[C@]12C)C(C)C [Compound 7, β-sitosterol] |  |  | 18 | 12 |  | 16 |  |  | significant activity | significant activity | 15 |  | 
5 | CC(=O)c1c(O)c(C)c(O)c2c1OC1=CC(=O)C(C(C)=O)C(=O)C12C (centres unmarked) [Compound 9, usnic acid] | 15 |  | 17 | 16 | 11 | 17 |  |  |  |  | 15 |  | 
6 | C[C@H]1[C@H](C)CC[C@]2(C(=O)O)CC[C@]3(C)C(=CC[C@@H]4[C@@]5(C)C[C@@H](O)[C@H](O)C(C)(C)[C@@H]5CC[C@]43C)[C@H]12 [Compound 11, corosolic acid] | 15 |  | 17 | 15 |  | 17 |  |  | significant activity | significant activity |  |  | 
7 | CC1(C)CC[C@]2(C(=O)O)CC[C@]3(C)C(=CC[C@@H]4[C@@]5(C)C[C@@H](O)[C@H](O)[C@@](C)(CO)[C@@H]5CC[C@]43C)[C@@H]2C1 [Compound 12, arjunolic acid] | 13 |  | 16 | 15 | 9 | 12 |  |  | significant activity | significant activity | 15 |  | 
8 | CC1(C)CC[C@]2(CO)CC[C@]3(C)C(=CC[C@@H]4[C@@]5(C)CC[C@H](O)C(C)(C)[C@@H]5CC[C@]43C)[C@@H]2C1 [Compound 13, erythrodiol] |  |  | 19 | 17 | 16 | 12 |  |  | significant activity | significant activity | 11 |  | 
9 | CC1(C)CC[C@]2(C(=O)O)CC[C@]3(C)C(=CC[C@@H]4[C@@]5(C)CC[C@H](O)C(C)(C)[C@@H]5CC[C@]43C)[C@@H]2C1 [Compound 14, oleanolic acid] | 10 |  | 16 | 15 |  | 16 |  |  | significant activity | significant activity |  |  | 
10 | C=C(C)[C@@H]1CC[C@]2(CO)CC[C@]3(C)[C@H](CC[C@@H]4[C@@]5(C)CC[C@H](O)C(C)(C)[C@@H]5CC[C@]43C)[C@@H]12 [Compound 15, betulin] | 15 |  | 16 |  |  | 18 |  |  | significant activity | significant activity |  |  | 
11 | C[C@@H](O)[C@H]1C(=O)N2C(C(=O)O)=C(SCCN=CN)C[C@H]12 [Imipenem, reference compound] | 27 |  | 25 | 33 | 30 | 24 |  |  |  |  | 33 |  | 
12 | CC(C)C(=O)c1c(O)c([C@H](C2=C(O)C(C)(C)C(=O)C(C)(C)C2=O)C(C)C)c(O)c([C@H](C2=C(O)C(C)(C)C(=O)C(C)(C)C2=O)C(C)C)c1O [Myrtucommulone-A] |  |  |  |  |  |  |  |  |  |  |  | significant antibacterial activity | powerful antioxidant properties
13 | Cc1c(O)c(C(=O)C(C)C)c(O)c(C(C2=C(O)C(C)(C)C(=O)C(C)(C)C2=O)C(C)C)c1O (centres unmarked) [semimyrtucommulone] |  |  |  |  |  |  |  |  |  |  |  | less active | powerful antioxidant properties
14 | Myrtucommulone-D [Compound 1] | 12 | 84.3 ± 3 | 15 | 15 |  |  | significant antibacterial activity |  |  |  | 24 |  | 
